Experiment: Comment Code material properties: vapor pressure, ClogP, probability of ingredient color instability, odor detection threshold, melamine formaldehyde PMC headspace response ratio and leakage, liquid dish neat product liquid-air partition coefficient
Type: physicochemical
Details: Table 1 materials; each letter of the code is one property class (vapor pressure, ClogP, color instability, odor detection threshold, PMC headspace ratio, PMC leakage, liquid dish liquid-air partition coefficient)

SMILES | Comment Code
COc1cc(C)ccc1C(C)C [Material 1062] | ADHIJKL
CCCC(O)CCC1C(C)CCCC1(C)C (stereo not drawn) [Material 1063] | DEFHJK
CCCC/C=C/C=C/C=O [Material 1064] | ACHKL
CC(C)=CCC/C(C)=C/CC/C(C)=C/CO [Material 1065] | DEFHJK
CC/C=C\CC/C=C/C=O [Material 1066] | ACHKL
CCCCCCC/C=C/C=O [Material 1067] | ADHKL
CCCCCC/C=C/C=O [Material 1070] | ADHKL
CC/C=C\C/C=C/CCO [Material 1072] | ACEFHK
CCCCC/C=C/CCC=O [Material 1073] | ADHKL
C=C/C(C)=C/CC=C(C)C [Material 1077] | ADGIKL
CC(C)=CCC/C(C)=C/CO [Material 1082] | BCHIK
CCCCCC1C(=O)CCC1CC(=O)OC (stereo not drawn) [Material 1083] | DFHJK
CC(C)(C)c1ccc2c(c1)OCC(=O)CO2 [Material 1085] | CEFHJ
CCCCCCCCCCCCCO [Material 1090] | DEFGJK
CCOC(=O)CC(O)(CC(=O)OCC)C(=O)OCC [Material 1091] | CEFGJ
COC(=O)c1ccccc1NC(O)CC(C)c1ccccc1 (stereo not drawn) [Material 1093] | DFHJ
CC(=O)C1CC/C(C)=C\CC/C(C)=C\C/C=C/1C (stereo not drawn) [Material 1095] | DHJK
CC1CC2CCC3C(C2O1)C(C)(C)C(C)C3(C)C (stereo not drawn) [Material 1097] | BDEFHJK
CC1CC=CCCCCCCCC(=O)OCC1 (stereo not drawn) [Material 1099] | DEFHJK
CCCCCCCCCCC=O [Material 1102] | BDHJK
CCC=C(C)C(O)CCCCC (stereo not drawn) [Material 1104] | BDEFHIJK
C=C(C)[C@@H]1CCC2=CCC[C@@H](C)[C@]2(C)C1 [Material 1105] | BDEFHJK
C[C@@H]1CCC=C2CC[C@@H](C(C)(C)O)C[C@]21C [Material 1107] | DEFHJK
COc1cc(C=O)ccc1OC(=O)C(C)C [Material 1111] | CHJ

Same assay, conditions: cell strings several class symbols together; each letter is one property class of L1

SMILES | Comment Code
CCC/C=C/CO [Material 1069] | ACEFHIKL
CC(C)(C)[C@@H]1CCCC[C@H]1O [Material 1071] | ACGIJKL
CC=CC(=O)C1C(C)=CCCC1(C)C (stereo not drawn) [Material 1074] | BDHIJK
C=C(C)[C@@H]1CC[C@@H](C)C(=O)C1 [Material 1081] | ACGIJKL
C/C=C/c1ccc(O)c(OC)c1 [Material 1084] | CEFHIK
CC(=O)OC(c1ccccc1)C(Cl)(Cl)Cl (stereo not drawn) [Material 1088] | BDEFGJ
CC1CC2CCC3C(C2O1)C(C)(C)C(C)C3(C)C (stereo not drawn) [Material 1097] | DEFHJK
CCCC(C)(S)CO (stereo not drawn) [Material 1098] | ACEFHIJKL
C[C@@H]1CCC=C2CC[C@@H](C(C)(C)O)C[C@]21C [Material 1107] | DEFHJK
CC=Cc1ccc(OCC)c(O)c1 [Material 1112] | CEFHK
CCCCCC1(C)CCC(C)(C)C1=O (stereo not drawn) [Material 1115] | BDFGIJKL
COc1ccc(C=O)cc1OC [Material 1118] | BCGIK
CC1=CC(=O)[C@@H]2C[C@H]1C2(C)C [Material 1119] | ACEFGIJKL
CC(C)(C)C1CCCCC1O (stereo not drawn) [Material 1122] | ACGIJKL
CC(=O)C1=C(C)[C@@H]2C[C@@]3(C1)[C@H](C)CC[C@H]3C2(C)C [Material 1129] | DHJK
COC(=O)c1ccccc1/N=C\C1CCC(C)=CC1C (stereo not drawn) [Material 1131] | DEFHJ
CC(=O)OC(C)CC(C)(C)c1ccccc1 (stereo not drawn) [Material 1134] | BDFHJK
C1CC2C3CC(C2C1)C1(CCCO1)C3 (stereo not drawn) [Material 1137] | DEFGJKL
C[C@@H]1CC[C@H]2[C@@H]1[C@H]1[C@@H](CC[C@]2(C)O)C1(C)C [Material 1140] | DEFHJK
C=C(C)COCC/C=C\CC [Material 1141] | ADEFHKL
Cc1cc2c(cc1C#N)C(C)(C)C(C)C(C)C2(C)C (stereo not drawn) [Material 1142] | DHJ
C[C@H]1[C@@H]2C[C@H](C[C@@]13C=CC(=O)CC3)C2(C)C [Material 1143] | DEFHJK
CC1(C)C2CCC3(C2)C1C1(CCC3(C)C)OCCO1 (stereo not drawn) [Material 1144] | DEFHJK

Same assay, conditions: letter codes A-L: vapor pressure, ClogP, probability of ingredient color instability, odor detection threshold, PMC headspace response ratio, PMC leakage, liquid dish liquid-air partition coefficient; Table 1 materials with at least one MORV from 1 to 5

SMILES | Comment Code
COCc1ccc(O)c(OC)c1 [Material 1113] | CGIK
CC(C=O)=CCC1C(C)=CCCC1(C)C (stereo not drawn) [Material 1116] | BDFHJK
COC(=O)c1c(C)cc(O)c(C)c1O [Material 1117] | CGIJ
COC1C=CC2C3CCC(C3)C12 (stereo not drawn) [Material 1120] | ACEFHJKL
COC(=O)c1ccccc1N=CC(C)Cc1ccc(C(C)(C)C)cc1 (stereo not drawn) [Material 1121] | DFHJ
CCC=CCCOC(=O)C(C)C [Material 1125] | ADEFHJKL
CC1CC(C)(c2ccccc2)OC(C)O1 (stereo not drawn) [Material 1126] | BCFHJK
CC(=O)C1=C(C)[C@@H]2C[C@@]3(C1)[C@H](C)CC[C@H]3C2(C)C [Material 1129] | DHJK
COC(=O)c1ccccc1/N=C\C1CCC(C)=CC1C (stereo not drawn) [Material 1131] | DEFHJ
C1CC2C3CC(C2C1)C1(CCCO1)C3 (stereo not drawn) [Material 1137] | DEFGJKL
CC/C=C/CC/C=C\C#N [Material 1138] | ACEFHKL
COC(=O)OC1CC/C=C\CCC1 (stereo not drawn) [Material 1139] | BCHJKL
C[C@@H]1CC[C@H]2[C@@H]1[C@H]1[C@@H](CC[C@]2(C)O)C1(C)C [Material 1140] | DEFHJK
Cc1cc2c(cc1C#N)C(C)(C)C(C)C(C)C2(C)C (stereo not drawn) [Material 1142] | DHJ
C[C@H]1[C@@H]2C[C@H](C[C@@]13C=CC(=O)CC3)C2(C)C [Material 1143] | DEFHJK
CC1(C)C2CCC3(C2)C1C1(CCC3(C)C)OCCO1 (stereo not drawn) [Material 1144] | DEFHJK
CC1(C)C2CCC3(C2)C1C1(CCC3(C)C)OCCO1 (stereo not drawn) [Material 1145] | DEFHJK
COc1cc(CCC(C)=O)ccc1O [Material 1146] | CEFGJ
CC1=CC2=C(C(C)C)CC[C@@H](C)[C@H]2CC1 [Material 1147] | DEFHJKL
